From patent publication US20130289070A1, “Use of Levocabastine for Modulating Generation of Pro-Inflammatory Cytokines” (Bausch & Lomb Incorporated, priority 2007, published 2013)

Tested on: EoL-1 (human eosinophilic leukaemia cell line) cells
Test: TNF-α-induced cytokine release, non-differentiated EoL-1 cells (NO PMA) (Luminex)
Format: cell-based
Set-up: key to Fractalkine (NO PMA), p of decrement / IL-1α (NO PMA), p of decrement / IL-1β (NO PMA), p of decrement / IL-1ra (NO PMA), p of decrement / IL-5 (NO PMA), p of decrement / IL-7 (NO PMA), p of decrement / IL-8 (NO PMA), p of decrement / IP-10 (NO PMA), p of decrement / MCP-1 (NO PMA), p of decrement / MIP-1β (NO PMA), p of decrement / VEGF (NO PMA), p of decrement: ns = non significant
Protocol: EoL-1 (human eosinophilic leukaemia cell line) cells (Saito et al., 1985; Mayumi, 1992) were maintained in RPMI-1640 medium with L-glutamine supplemented with 10% (v/v) FBS at 37° C. in a humidified atmosphere with 5% CO2. Where indicated, 24 h before the experiment 25 ng/mL PMA ((phorbol 12-myristate 13-acetate, purchased from Sigma Aldrich) was added to the medium to induce eosinophil granulation and differentiation (Ohtsu et al., 1993; Zimmermann et al., 2000).
Half-million cells were aliquoted per point in a 24 well plate; each experiment was performed in triplicate and carried out in parallel with eosinophils differentiated and non differentiated with PMA (25 ng/mL, 24 h). Cells were suspended in low serum medium (RPMI-1640, 0.1% (v/v) FBS). TNF-α was used to induce cytokine secretion as previously described by Steube et al. (2000), and the net release was obtained by comparison to the basal (non-TNF-α treated). In the first experiment we evaluated the concentration and time relation between TNF-α stimulation and cytokine release. Therefore, 5, 10, and 25 ng/mL of TNF-α was administered to the cells at 0, ½, 1, 2, 3, 6, 12 and 24 h (data not shown). An aliquot of 150 μL of supernate was collected for cytokines' analysis. […] Differentiated and non-differentiated EoL-1 cells were exposed from 0.1 to 2.3 mM levocabastine ([…]Levocabastine 0.05% solution eye drops containing cyclodextrins, without benzalkonium chloride), and aliquots of the supernates were collected after 12 and 24 h. The content of cytokines at time zero was estimated by treating the cells with 400 nM calcimycin (A-23187), which is a cytolytic agent that frees all the mediators from the cytoplasmic compartment. In addition, for each experiment we tested the effect of the vehicle, which was added to the wells in a concentration equal to the maximum amount used for drug dilution.
Samples (supernates 12 and 24 h) in triplicate were analyzed using Luminex 200™ (Luminex, Austin, Tex.) and Beadview software v1.0 (Upstate Cell Signaling Solutions, Temecula, Calif.).
All data are presented as mean±SEM for the indicated number of experiments. Statistical significance was determined by Newman-Keuls test after ANOVA using GraphPad Prism (version 3.0; GraphPad Software Inc., San Diego, Calif., USA). P-values<0.05 were considered to be significant.

[1] = 12 h, TNF-α 5 ng + Levocabastine 2 mM vs TNF-α
[2] = 12 h, TNF-α 10 ng + Levocabastine 2 mM vs TNF-α
[3] = 12 h, TNF-α 20 ng + Levocabastine 2 mM vs TNF-α
[4] = 12 h, TNF-α 5, 10, 20 ng + Levocabastine 2 mM vs TNF-α
[5] = 24 h, FN + Levocabastine 2 mM vs FN
[6] = 24 h, Levocabastine 2 mM vs TNF-α

C[C@@H]1CN([C@H]2CC[C@](C#N)(c3ccc(F)cc3)CC2)CC[C@]1(C(=O)O)c1ccccc1 [Levocabastine, levocabastine]
release of IL-1-ra induced by TNF-α (2 mM, TNF-α 10 ng, 24 h, not exposed to PMA, not influenced by VCAM-1 or fibronectin (FIG. 11)): effective in reducing the release
release of IL-6 induced by TNF-α (2 mM, TNF-α 10 ng, 24 h, not exposed to PMA, not influenced by VCAM-1 or fibronectin (FIG. 12)): effective in reducing the release
release of IL-8 induced by TNF-α (2 mM, TNF-α 10 ng, 24 h, not exposed to PMA, not influenced by VCAM-1 or fibronectin (FIG. 13)): effective in reducing the release
release of IL-12-P40 induced by TNF-α (2 mM, TNF-α 5, 10 and 20 ng, 24 h, without PMA (FIG. 7)): capable of reducing the release
GM-CSF (NO PMA), p of decrement [1]: ns
IL-1β (NO PMA), p of decrement [1]: ns
IL-5 (NO PMA), p of decrement [1]: ns
IL-6 (NO PMA), p of decrement [1]: ns
IL-7 (NO PMA), p of decrement [1]: ns
IL-8 (NO PMA), p of decrement [1]: ns
IL-10 (NO PMA), p of decrement [1]: ns
IL-12p40 (NO PMA), p of decrement [1]: P < 0.001
MCP-1 (NO PMA), p of decrement [1]: ns
TGF-α (NO PMA), p of decrement [1]: ns
VEGF (NO PMA), p of decrement [1]: P < 0.01
GM-CSF (NO PMA), p of decrement [2]: ns
IL-1β (NO PMA), p of decrement [2]: ns
IL-5 (NO PMA), p of decrement [2]: ns
IL-6 (NO PMA), p of decrement [2]: ns
IL-7 (NO PMA), p of decrement [2]: ns
IL-8 (NO PMA), p of decrement [2]: ns
IL-10 (NO PMA), p of decrement [2]: ns
IL-12p40 (NO PMA), p of decrement [2]: P < 0.001
MCP-1 (NO PMA), p of decrement [2]: ns
TGF-α (NO PMA), p of decrement [2]: ns
VEGF (NO PMA), p of decrement [2]: P < 0.01
GM-CSF (NO PMA), p of decrement [3]: ns
IL-1β (NO PMA), p of decrement [3]: ns
IL-5 (NO PMA), p of decrement [3]: ns
IL-6 (NO PMA), p of decrement [3]: ns
IL-7 (NO PMA), p of decrement [3]: ns
IL-8 (NO PMA), p of decrement [3]: ns
IL-10 (NO PMA), p of decrement [3]: ns
IL-12p40 (NO PMA), p of decrement [3]: P < 0.001
MCP-1 (NO PMA), p of decrement [3]: ns
TGF-α (NO PMA), p of decrement [3]: ns
VEGF (NO PMA), p of decrement [3]: P < 0.05
Fractalkine (NO PMA), p of decrement [4]: increase of cytokine secretion
G-CSF (NO PMA), p of decrement [4]: increase of cytokine secretion
IL-1ra (NO PMA), p of decrement [4]: increase of cytokine secretion
IL-1α (NO PMA), p of decrement [4]: increase of cytokine secretion
IP-10 (NO PMA), p of decrement [4]: increase of cytokine secretion
MIP-1α (NO PMA), p of decrement [4]: increase of cytokine secretion
MIP-1β (NO PMA), p of decrement [4]: increase of cytokine secretion
RANTES (NO PMA), p of decrement [4]: increase of cytokine secretion
Fractalkine (NO PMA), p of decrement (12 h, TNF-α vs Lev 0.1 mM): ns
IL-1ra (NO PMA), p of decrement (12 h, TNF-α vs Lev 0.1 mM): ns
IL-1α (NO PMA), p of decrement (12 h, TNF-α vs Lev 0.1 mM): ns
IL-1β (NO PMA), p of decrement (12 h, TNF-α vs Lev 0.1 mM): ns
IL-5 (NO PMA), p of decrement (12 h, TNF-α vs Lev 0.1 mM): ns
IL-7 (NO PMA), p of decrement (12 h, TNF-α vs Lev 0.1 mM): ns
IL-8 (NO PMA), p of decrement (12 h, TNF-α vs Lev 0.1 mM): ns
IP-10 (NO PMA), p of decrement (12 h, TNF-α vs Lev 0.1 mM): ns
MCP-1 (NO PMA), p of decrement (12 h, TNF-α vs Lev 0.1 mM): ns
MIP-1β (NO PMA), p of decrement (12 h, TNF-α vs Lev 0.1 mM): ns
VEGF (NO PMA), p of decrement (12 h, TNF-α vs Lev 0.1 mM): ns
Fractalkine (NO PMA), p of decrement (12 h, TNF-α vs Lev 0.5 mM): ns
IL-1ra (NO PMA), p of decrement (12 h, TNF-α vs Lev 0.5 mM): ns
IL-1α (NO PMA), p of decrement (12 h, TNF-α vs Lev 0.5 mM): ns
IL-1β (NO PMA), p of decrement (12 h, TNF-α vs Lev 0.5 mM): ns
IL-5 (NO PMA), p of decrement (12 h, TNF-α vs Lev 0.5 mM): ns
IL-7 (NO PMA), p of decrement (12 h, TNF-α vs Lev 0.5 mM): ns
IL-8 (NO PMA), p of decrement (12 h, TNF-α vs Lev 0.5 mM): ns
IP-10 (NO PMA), p of decrement (12 h, TNF-α vs Lev 0.5 mM): ns
MCP-1 (NO PMA), p of decrement (12 h, TNF-α vs Lev 0.5 mM): ns
MIP-1β (NO PMA), p of decrement (12 h, TNF-α vs Lev 0.5 mM): ns
VEGF (NO PMA), p of decrement (12 h, TNF-α vs Lev 0.5 mM): ns
Fractalkine (NO PMA), p of decrement (12 h, TNF-α vs Lev 1.0 mM): ns
IL-1ra (NO PMA), p of decrement (12 h, TNF-α vs Lev 1.0 mM): ns
IL-1α (NO PMA), p of decrement (12 h, TNF-α vs Lev 1.0 mM): ns
IL-1β (NO PMA), p of decrement (12 h, TNF-α vs Lev 1.0 mM): ns
IL-5 (NO PMA), p of decrement (12 h, TNF-α vs Lev 1.0 mM): ns
IL-7 (NO PMA), p of decrement (12 h, TNF-α vs Lev 1.0 mM): ns
IL-8 (NO PMA), p of decrement (12 h, TNF-α vs Lev 1.0 mM): ns
IP-10 (NO PMA), p of decrement (12 h, TNF-α vs Lev 1.0 mM): ns
MCP-1 (NO PMA), p of decrement (12 h, TNF-α vs Lev 1.0 mM): ns
MIP-1β (NO PMA), p of decrement (12 h, TNF-α vs Lev 1.0 mM): ns
VEGF (NO PMA), p of decrement (12 h, TNF-α vs Lev 1.0 mM): ns
Fractalkine (NO PMA), p of decrement (12 h, TNF-α vs Lev 2.3 mM): ns
IL-1ra (NO PMA), p of decrement (12 h, TNF-α vs Lev 2.3 mM): ns
IL-1α (NO PMA), p of decrement (12 h, TNF-α vs Lev 2.3 mM): ns
IL-1β (NO PMA), p of decrement (12 h, TNF-α vs Lev 2.3 mM): ns
IL-5 (NO PMA), p of decrement (12 h, TNF-α vs Lev 2.3 mM): ns
IL-7 (NO PMA), p of decrement (12 h, TNF-α vs Lev 2.3 mM): ns
IL-8 (NO PMA), p of decrement (12 h, TNF-α vs Lev 2.3 mM): ns
IP-10 (NO PMA), p of decrement (12 h, TNF-α vs Lev 2.3 mM): ns
MCP-1 (NO PMA), p of decrement (12 h, TNF-α vs Lev 2.3 mM): ns
MIP-1β (NO PMA), p of decrement (12 h, TNF-α vs Lev 2.3 mM): ns
VEGF (NO PMA), p of decrement (12 h, TNF-α vs Lev 2.3 mM): ns
MIP-1α (NO PMA), change of secretion (12 h, TNF-α vs Lev 0.1-2.3 mM): concentration dependent increase of
MIP-1α (NO PMA), p of increase (12 h, TNF-α vs Lev 0.1-2.3 mM): cytokine secretion p < 0.01
RANTES (NO PMA), change of secretion (12 h, TNF-α vs Lev 0.1-2.3 mM): increase of cytokine secretion
RANTES (NO PMA), p of increase (12 h, TNF-α vs Lev 0.1-2.3 mM): < 0.001
Fractalkine (NO PMA), p of decrement [5]: ns
G-CSF (NO PMA), p of decrement [5]: ns
GM-CSF (NO PMA), p of decrement [5]: ns
IL-1ra (NO PMA), p of decrement [5]: P < 0.001
IL-1α (NO PMA), p of decrement [5]: ns
IL-1β (NO PMA), p of decrement [5]: ns
IL-5 (NO PMA), p of decrement [5]: ns
IL-6 (NO PMA), p of decrement [5]: P < 0.001
IL-7 (NO PMA), p of decrement [5]: ns
IL-8 (NO PMA), p of decrement [5]: P < 0.001
IL-10 (NO PMA), p of decrement [5]: ns
IL-12p40 (NO PMA), p of decrement [5]: P < 0.05
IP-10 (NO PMA), p of decrement [5]: ns
MCP-1 (NO PMA), p of decrement [5]: Increase
MIP-1α (NO PMA), p of decrement [5]: Increase
MIP-1β (NO PMA), p of decrement [5]: ns
RANTES (NO PMA), p of decrement [5]: Increase
TGF-α (NO PMA), p of decrement [5]: ns
VEGF (NO PMA), p of decrement [5]: P < 0.001
Fractalkine (NO PMA), p of decrement [6]: ns
G-CSF (NO PMA), p of decrement [6]: ns
GM-CSF (NO PMA), p of decrement [6]: ns
IL-1ra (NO PMA), p of decrement [6]: P < 0.001
IL-1α (NO PMA), p of decrement [6]: ns
IL-1β (NO PMA), p of decrement [6]: ns
IL-5 (NO PMA), p of decrement [6]: ns
IL-6 (NO PMA), p of decrement [6]: P < 0.001
IL-7 (NO PMA), p of decrement [6]: ns
